Assay results: PubChem BioAssay AID256 (DTP/NCI, 2004)
Several values for one entry are separate records, joined by “and”; a condition that tells them apart may be missing. Equal values may be shown once. Toxic doses and inconclusive results are not listed.

Tested on: CD2F1 mice, L1210 leukemia ip, survival T/C
Test: NCI In Vivo Anticancer Drug Screen. Data for tumor model L1210 Leukemia (intraperitoneal) in CD2F1 (CDF1) mice
Conditions: higher = longer survival
In short: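 Mice carrying a transplanted tumor received test compound or vehicle alone. The value is the measurement in the treated group divided by that in the vehicle-treated control group.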

Nc1nc(=S)c2[nH]cnc2[nH]1
T/C (endpoint: mean survival time, dose: 0.13 mg/kg/injection, schedule: Q01DX009 (ip), vehicle: other): 110 % of control
T/C (endpoint: mean survival time, dose: 0.25 mg/kg/injection, schedule: Q01DX009 (ip), vehicle: alkali diluted with saline): 114 % of control and 120 % of control
T/C (endpoint: mean survival time, dose: 0.25 mg/kg/injection, schedule: Q01DX009 (ip), vehicle: other): 121 % of control
T/C (endpoint: mean survival time, dose: 0.38 mg/kg/injection, schedule: Q01DX009 (ip), vehicle: acid diluted with saline): 116 % of control and 123 % of control
T/C (endpoint: mean survival time, dose: 0.5 mg/kg/injection, schedule: Q01DX005 (ip), vehicle: water): 116 % of control
T/C (endpoint: mean survival time, dose: 0.5 mg/kg/injection, schedule: Q01DX009 (ip), vehicle: alkali diluted with saline): 124 % of control
T/C (endpoint: mean survival time, dose: 0.5 mg/kg/injection, schedule: Q01DX009 (ip), vehicle: other): 121 % of control
T/C (endpoint: mean survival time, dose: 0.66 mg/kg/injection, schedule: Q01DX009 (ip), vehicle: clinical formulation): 150 % of control
T/C (endpoint: mean survival time, dose: 0.75 mg/kg/injection, schedule: Q01DX009 (ip), vehicle: acid diluted with saline): 164 % of control
T/C (endpoint: mean survival time, dose: 1.0 mg/kg/injection, schedule: Q01DX005 (ip), vehicle: alkali diluted with saline): 163 % of control
T/C (endpoint: mean survival time, dose: 1.0 mg/kg/injection, schedule: Q01DX005 (ip), vehicle: water): 120 % of control
T/C (endpoint: mean survival time, dose: 1.0 mg/kg/injection, schedule: Q01DX007 (ip), vehicle: saline): 151 % of control
T/C (endpoint: mean survival time, dose: 1.0 mg/kg/injection, schedule: Q03DX003 (ip), vehicle: saline): 152 % of control
T/C (endpoint: mean survival time, dose: 1.0 mg/kg/injection, schedule: Q04DX003 (ip), vehicle: saline): 154 % of control
T/C (endpoint: mean survival time, dose: 1.12 mg/kg/injection, schedule: Q04DX003 (ip), vehicle: acid diluted with saline): 116 % of control and 118 % of control
T/C (endpoint: mean survival time, dose: 1.2 mg/kg/injection, schedule: Q01DX009 (ip), vehicle: alkali diluted with saline): 152 % of control and 153 % of control
T/C (endpoint: mean survival time, dose: 1.47 mg/kg/injection, schedule: Q01DX009 (ip), vehicle: clinical formulation): 150 % of control
T/C (endpoint: mean survival time, dose: 1.47 mg/kg/injection, schedule: Q01DX009 (ip), vehicle: saline): 158 % of control
T/C (endpoint: mean survival time, dose: 1.5 mg/kg/injection, schedule: Q01DX009 (ip), vehicle: acid diluted with saline): 164 % of control and 171 % of control and 180 % of control
T/C (endpoint: mean survival time, dose: 1.56 mg/kg/injection, schedule: Q01DX005 (ip), vehicle: alkali diluted with saline): 159 % of control
T/C (endpoint: mean survival time, dose: 1.8 mg/kg/injection, schedule: Q01DX009 (ip), vehicle: alkali diluted with saline): 151 % of control
T/C (endpoint: mean survival time, dose: 2.0 mg/kg/injection, schedule: Q01DX005 (ip), vehicle: alkali diluted with saline): 158 % of control
T/C (endpoint: mean survival time, dose: 2.0 mg/kg/injection, schedule: Q03DX003 (ip), vehicle: saline): 160 % of control
T/C (endpoint: mean survival time, dose: 2.0 mg/kg/injection, schedule: Q04DX003 (ip), vehicle: alkali diluted with saline): 122 % of control
T/C (endpoint: mean survival time, dose: 2.0 mg/kg/injection, schedule: Q04DX003 (ip), vehicle: saline): 160 % of control
T/C (endpoint: mean survival time, dose: 2.2 mg/kg/injection, schedule: Q01DX009 (ip), vehicle: clinical formulation): 155 % of control
T/C (endpoint: mean survival time, dose: 3.0 mg/kg/injection, schedule: Q01DX009 (ip), vehicle: alkali diluted with saline): 536 % of control
T/C (endpoint: mean survival time, dose: 3.12 mg/kg/injection, schedule: Q01DX005 (ip), vehicle: alkali diluted with saline): 188 % of control
T/C (endpoint: mean survival time, dose: 4.0 mg/kg/injection, schedule: Q01DX005 (ip), vehicle: alkali diluted with saline): 150 % of control
T/C (endpoint: mean survival time, dose: 4.0 mg/kg/injection, schedule: Q01DX007 (ip), vehicle: saline): 152 % of control
T/C (endpoint: mean survival time, dose: 4.0 mg/kg/injection, schedule: Q01DX009 (ip), vehicle: acid diluted with saline): 122 % of control
T/C (endpoint: mean survival time, dose: 4.0 mg/kg/injection, schedule: Q03DX003 (ip), vehicle: saline): 156 % of control
T/C (endpoint: mean survival time, dose: 4.0 mg/kg/injection, schedule: Q04DX003 (ip), vehicle: saline): 176 % of control
T/C (endpoint: mean survival time, dose: 4.5 mg/kg/injection, schedule: Q04DX003 (ip), vehicle: acid diluted with saline): 161 % of control
T/C (endpoint: mean survival time, dose: 6.25 mg/kg/injection, schedule: Q01DX005 (ip), vehicle: alkali diluted with saline): 159 % of control
T/C (endpoint: mean survival time, dose: 9.0 mg/kg/injection, schedule: Q04DX003 (ip), vehicle: acid diluted with saline): 166 % of control
T/C (endpoint: mean survival time, dose: 12.5 mg/kg/injection, schedule: Q01DX005 (ip), vehicle: alkali diluted with saline): 119 % of control
T/C (endpoint: mean survival time, dose: 18.0 mg/kg/injection, schedule: Q04DX003 (ip), vehicle: acid diluted with saline): 176 % of control
T/C (endpoint: mean survival time, dose: 20.0 mg/kg/injection, schedule: Q04DX003 (ip), vehicle: alkali diluted with saline): 152 % of control
T/C (endpoint: mean survival time, dose: 23.0 mg/kg/injection, schedule: Q01DX001 (ip), vehicle: alkali diluted with saline): 158 % of control
T/C (endpoint: mean survival time, dose: 25.0 mg/kg/injection, schedule: Q01DX005 (ip), vehicle: alkali diluted with saline): 96 % of control
T/C (endpoint: mean survival time, dose: 31.0 mg/kg/injection, schedule: Q01DX001 (ip), vehicle: alkali diluted with saline): 161 % of control
T/C (endpoint: mean survival time, dose: 47.0 mg/kg/injection, schedule: Q01DX001 (ip), vehicle: alkali diluted with saline): 167 % of control
T/C (endpoint: median survival time, dose: 0.86 mg/kg/injection, schedule: Q01DX009 (ip), vehicle: acid diluted with saline): 152 % of control and 154 % of control
T/C (endpoint: median survival time, dose: 1.44 mg/kg/injection, schedule: Q01DX009 (ip), vehicle: acid diluted with saline): 160 % of control
T/C (endpoint: median survival time, dose: 2.4 mg/kg/injection, schedule: Q01DX009 (ip), vehicle: acid diluted with saline): 158 % of control
T/C (endpoint: median survival time, dose: 2.7 mg/kg/injection, schedule: Q04DX003 (ip), vehicle: alkali diluted with saline): 159 % of control
T/C (endpoint: median survival time, dose: 4.0 mg/kg/injection, schedule: Q01DX009 (ip), vehicle: acid diluted with saline): 151 % of control and 152 % of control
T/C (endpoint: median survival time, dose: 4.5 mg/kg/injection, schedule: Q04DX003 (ip), vehicle: alkali diluted with saline): 172 % of control
T/C (endpoint: median survival time, dose: 7.5 mg/kg/injection, schedule: Q04DX003 (ip), vehicle: alkali diluted with saline): 191 % of control
T/C (endpoint: median survival time, dose: 12.5 mg/kg/injection, schedule: Q04DX003 (ip), vehicle: alkali diluted with saline): 187 % of control
T/C (endpoint: median survival time, dose: 20.0 mg/kg/injection, schedule: Q04DX003 (ip), vehicle: alkali diluted with saline): 151 % of control
T/C (endpoint: median survival time, dose: 20.83 mg/kg/injection, schedule: Q04DX003 (ip), vehicle: alkali diluted with saline): 166 % of control
T/C (endpoint: median survival time, dose: 40.0 mg/kg/injection, schedule: Q01DX001 (ip), vehicle: alkali diluted with saline): 150 % of control and 161 % of control
T/C (endpoint: median survival time, dose: 60.0 mg/kg/injection, schedule: Q01DX001 (ip), vehicle: alkali diluted with saline): 183 % of control

CC(C)(C)SC1C(O)C(CO)OC1n1ccc(Nc2ccccc2)nc1=O (stereo not drawn)
T/C (endpoint: median survival time, dose: 12.5 mg/kg/injection, schedule: Q01DX005 (ip), vehicle: saline with Tween-80): 99 % of control
T/C (endpoint: median survival time, dose: 25.0 mg/kg/injection, schedule: Q01DX005 (ip), vehicle: saline with Tween-80): 99 % of control
T/C (endpoint: median survival time, dose: 50.0 mg/kg/injection, schedule: Q01DX005 (ip), vehicle: saline with Tween-80): 102 % of control
T/C (endpoint: median survival time, dose: 100.0 mg/kg/injection, schedule: Q01DX005 (ip), vehicle: saline with Tween-80): 104 % of control
T/C (endpoint: median survival time, dose: 200.0 mg/kg/injection, schedule: Q01DX005 (ip), vehicle: saline with Tween-80): 90 % of control

C=C1C(=O)OCC2CCCCC12C (stereo not drawn)
T/C (endpoint: mean survival time, dose: 1.25 mg/kg/injection, schedule: Q01DX009 (ip), vehicle: saline with Tween-80): 98 % of control
T/C (endpoint: mean survival time, dose: 2.5 mg/kg/injection, schedule: Q01DX009 (ip), vehicle: saline with Tween-80): 101 % of control
T/C (endpoint: mean survival time, dose: 5.0 mg/kg/injection, schedule: Q01DX009 (ip), vehicle: saline with Tween-80): 101 % of control
T/C (endpoint: mean survival time, dose: 10.0 mg/kg/injection, schedule: Q01DX009 (ip), vehicle: saline with Tween-80): 98 % of control

CNC(=O)NC1C(CO)OC2OC(C)(C)OC21 (stereo not drawn)
T/C (endpoint: mean survival time, dose: 100.0 mg/kg/injection, schedule: Q04DX003 (ip), vehicle: saline): 96 % of control
T/C (endpoint: mean survival time, dose: 200.0 mg/kg/injection, schedule: Q04DX003 (ip), vehicle: saline): 94 % of control
T/C (endpoint: mean survival time, dose: 400.0 mg/kg/injection, schedule: Q04DX003 (ip), vehicle: saline): 96 % of control

CC1(C)OC2C(COC(=O)Oc3ccccc3)OC(n3cnc4c(=O)[nH]cnc43)C2O1 (stereo not drawn)
T/C (endpoint: mean survival time, dose: 100.0 mg/kg/injection, schedule: Q01DX001 (ip), vehicle: saline with Tween-80): 101 % of control
T/C (endpoint: mean survival time, dose: 100.0 mg/kg/injection, schedule: Q04DX002 (ip), vehicle: saline with Tween-80): 102 % of control
T/C (endpoint: mean survival time, dose: 200.0 mg/kg/injection, schedule: Q01DX001 (ip), vehicle: saline with Tween-80): 97 % of control
T/C (endpoint: mean survival time, dose: 200.0 mg/kg/injection, schedule: Q04DX002 (ip), vehicle: saline with Tween-80): 94 % of control
T/C (endpoint: mean survival time, dose: 400.0 mg/kg/injection, schedule: Q01DX001 (ip), vehicle: saline with Tween-80): 94 % of control
T/C (endpoint: mean survival time, dose: 400.0 mg/kg/injection, schedule: Q04DX002 (ip), vehicle: saline with Tween-80): 97 % of control

CC(C)c1cc(C(=O)O)c(O)c(C(C)C)c1.CC(C)c1cc(C(=O)O)c(O)c(C(C)C)c1.[Cu]
T/C (endpoint: median survival time, dose: 6.25 mg/kg/injection, schedule: Q01DX009 (ip), vehicle: saline with Tween-80): 100 % of control
T/C (endpoint: median survival time, dose: 12.5 mg/kg/injection, schedule: Q01DX009 (ip), vehicle: saline with Tween-80): 96 % of control
T/C (endpoint: median survival time, dose: 25.0 mg/kg/injection, schedule: Q01DX009 (ip), vehicle: saline with Tween-80): 96 % of control

CCOCc1cc(C)[nH]c(=O)c1C#N
T/C (endpoint: mean survival time, dose: 100.0 mg/kg/injection, schedule: Q04DX003 (ip), vehicle: saline with Tween-80): 96 % of control
T/C (endpoint: mean survival time, dose: 200.0 mg/kg/injection, schedule: Q04DX003 (ip), vehicle: saline with Tween-80): 98 % of control
